# Laboratory results as given in patent publication US7547513B2, “Mutants of deoxycytidine kinase having extended enzymatic activity” (priority 2001, dated 2009).
# Where “and” joins values, the source holds several entries; their conditions need not be identical. Equal entries are not always repeated.
# Assays:
# Assay type in all cases: cell-based
# [1] = system: Escherichia coli β7334 Δdeo tdk cdd::Tn10 pSUTrc (dck allele: none); settings: strain β7334, dck allele none; 18 h 37° C., MS medium + IPTG
# Procedure: (§1) The culture was then diluted 100 times in the same medium supplemented with IPTG and distributed on 96-well microplates in a final volume of 100 μl in a series of dilutions from to 2 to 2 nucleotide analogues. Each analogue was tested twice. After incubation for 18 hours at 37° C. with stirring, the MIC was determined as corresponding to the lowest analogue concentration for which no turbidity was detectable.
# (§2) The toxicity of nucleoside analogues, deviating either by the sugar or by the base, was evaluated in strains of genotype Δdeo tdk cdd expressing on a plasmid the different dckH alleles, wild-type allele, D133E, R104Q and double mutant.
# (§3) The minimum inhibitory concentrations, expressed in microM, were determined as indicated in the section Materials and Methods.
# [2] = system: Escherichia coli β7338 Δdeo tdk cdd::Tn10 pSUDCK4 (dck:D133E-R104Q); settings: strain β7338, dck allele D133E R104Q; 18 h 37° C., MS medium + IPTG
# Procedure: as §1, §2, §3
# [3] = system: Escherichia coli β7339 Δdeo tdk cdd::Tn10 (dckH none, amkG wt); assay: microbe, parasite or virus in culture; settings: for minimum inhibitory concentration (MIC): strain β7339, dckH none, amkG wt
# Procedure: as §1
# (§4) We jointly expressed, within the genetic context Δdeo tdk cdd each of the four alleles of dckH with each of the two wt and T39A alleles of amkG, and tested the toxicity of the different nucleoside analogues already tested previously (Table 4 below).
# as §3
# [4] = system: Escherichia coli β7340 Δdeo tdk cdd::Tn10 (dckH wt, amkG wt); assay: microbe, parasite or virus in culture; settings: for minimum inhibitory concentration (MIC): strain β7340, dckH wt, amkG wt
# Procedure: as §1, §4, §3
# [5] = system: Escherichia coli β7341 Δdeo tdk cdd::Tn10 (dckH D133E, amkG wt); assay: microbe, parasite or virus in culture; settings: for minimum inhibitory concentration (MIC): strain β7341, dckH D133E, amkG wt
# Procedure: as §1, §4, §3
# [6] = system: Escherichia coli β7342 Δdeo tdk cdd::Tn10 (dckH R104Q, amkG wt); assay: microbe, parasite or virus in culture; settings: for minimum inhibitory concentration (MIC): strain β7342, dckH R104Q, amkG wt
# Procedure: as §1, §4, §3
# [7] = system: Escherichia coli β7343 Δdeo tdk cdd::Tn10 (dckH D133E R104Q, amkG wt); assay: microbe, parasite or virus in culture; settings: for minimum inhibitory concentration (MIC): strain β7343, dckH D133E R104Q, amkG wt
# Procedure: as §1, §4, §3
# [8] = system: Escherichia coli β7344 Δdeo tdk cdd::Tn10 (dckH none, amkG T39A); assay: microbe, parasite or virus in culture; settings: for minimum inhibitory concentration (MIC): strain β7344, dckH none, amkG T39A
# Procedure: as §1, §4, §3
# [9] = system: Escherichia coli β7345 Δdeo tdk cdd::Tn10 (dckH wt, amkG T39A); assay: microbe, parasite or virus in culture; settings: for minimum inhibitory concentration (MIC): strain β7345, dckH wt, amkG T39A
# Procedure: as §1, §4, §3
# [10] = system: Escherichia coli β7346 Δdeo tdk cdd::Tn10 (dckH D133E, amkG T39A); assay: microbe, parasite or virus in culture; settings: for minimum inhibitory concentration (MIC): strain β7346, dckH D133E, amkG T39A
# Procedure: as §1, §4, §3
# [11] = system: Escherichia coli β7347 Δdeo tdk cdd::Tn10 (dckH R104Q, amkG T39A); assay: microbe, parasite or virus in culture; settings: for minimum inhibitory concentration (MIC): strain β7347, dckH R104Q, amkG T39A
# Procedure: as §1, §4, §3
# [12] = system: Escherichia coli β7348 Δdeo tdk cdd::Tn10 (dckH D133E R104Q, amkG T39A); assay: microbe, parasite or virus in culture; settings: for minimum inhibitory concentration (MIC): strain β7348, dckH D133E R104Q, amkG T39A
# Procedure: as §1, §4, §3
# [13] = system: Escherichia coli β7336 Δdeo tdk cdd::Tn10 pSUDCK2 (dck:D133E); settings: strain β7336, dck allele D133E; 18 h 37° C., MS medium + IPTG
# Procedure: The culture was then diluted 100 times in the same medium supplemented with IPTG and distributed on 96-well microplates in a final volume of 100 μl in a series of dilutions from to 2 to 2 nucleotide analogues. Each analogue was tested twice.
# as §2, §3
# [14] = Escherichia coli, read-out: minimum inhibitory concentration (MIC)
structure (smiles),measurement,setting,value
"Nc1nc(=O)n([C@H]2C[C@H](O)[C@@H](CO)O2)cc1Br [5-bromo-dC, 5-bromo-2-deoxycytidine]",minimum inhibitory concentration (MIC),[1],"> (no toxicity could be detected at the highest analogue concentration, 1.28 mM)"
same,minimum inhibitory concentration (MIC),[2],"> (no toxicity could be detected at the highest analogue concentration, 1.28 mM)"
O=c1[nH]c(=O)n([C@H]2C[C@H](O)[C@@H](CO)O2)cc1Cl [5-chloro-dU],minimum inhibitory concentration (MIC),[1],"> (no toxicity could be detected at the highest analogue concentration, 1.28 mM)"
same,minimum inhibitory concentration (MIC),[2],"> (no toxicity could be detected at the highest analogue concentration, 1.28 mM)"
O=c1[nH]c(=O)n([C@H]2C[C@H](O)[C@@H](CO)O2)cc1CO [5-hm-dU],minimum inhibitory concentration (MIC),[1],"> (no toxicity could be detected at the highest analogue concentration, 1.28 mM)"
same,minimum inhibitory concentration (MIC),[2],"> (no toxicity could be detected at the highest analogue concentration, 1.28 mM)"
"Nc1nc(=O)n([C@H]2C[C@H](O)[C@@H](CO)O2)cc1I [5-iodo-dC, 5-iodo-2′-deoxycytidine]",MIC,[3]; [14],> 1280 µM
same,MIC,[4]; [14],> 1280 µM
same,MIC,[5]; [14],≤ 1.25 µM
same,MIC,[6]; [14],≤ 1.25 µM
same,MIC,[7]; [14],≤ 1.25 µM
same,MIC,[8]; [14],> 1280 µM
same,MIC,[9]; [14],≤ 1.25 µM
same,MIC,[10]; [14],≤ 1.25 µM
same,MIC,[11]; [14],≤ 1.25 µM
same,MIC,[12]; [14],≤ 1.25 µM
O=c1[nH]c(=O)n([C@H]2C[C@H](O)[C@@H](CO)O2)cc1I [5-iodo-dU],minimum inhibitory concentration (MIC),[1],"> (no toxicity could be detected at the highest analogue concentration, 1.28 mM)"
same,minimum inhibitory concentration (MIC),[2],"> (no toxicity could be detected at the highest analogue concentration, 1.28 mM)"
Cc1cn([C@H]2C[C@H](O)[C@@H](CO)O2)c(N)nc1=O [5-methyl-disoC],minimum inhibitory concentration (MIC),[1],"> (no toxicity could be detected at the highest analogue concentration, 1.28 mM)"
same,minimum inhibitory concentration (MIC),[2],"> (no toxicity could be detected at the highest analogue concentration, 1.28 mM)"
Cc1cn([C@H]2C[C@H](O)[C@@H](CN)O2)c(=O)[nH]c1=O [5′-amino-dT],minimum inhibitory concentration (MIC),[1],"> (no toxicity could be detected at the highest analogue concentration, 1.28 mM)"
same,minimum inhibitory concentration (MIC),[2],"> (no toxicity could be detected at the highest analogue concentration, 1.28 mM)"
"OC[C@H]1O[C@@H](n2c(O)nc3c(O)ncnc32)C[C@@H]1O [8ho′dI, 8-hydroxy-hypoxanthine deoxyribonucleoside]",minimum inhibitory concentration (MIC),[1],"> (no toxicity could be detected at the highest analogue concentration, 1.28 mM)"
same,minimum inhibitory concentration (MIC),[2],"> (no toxicity could be detected at the highest analogue concentration, 1.28 mM)"
same,minimum inhibitory concentration (MIC),[13],1280 µM
same,minimum inhibitory concentration (MIC),[3],"> (no toxicity could be detected at the highest analogue concentration, 1280 microM)"
same,minimum inhibitory concentration (MIC),[4],"> (no toxicity could be detected at the highest analogue concentration, 1280 microM)"
same,minimum inhibitory concentration (MIC),[5],1280 µM
same,minimum inhibitory concentration (MIC),[6],"> (no toxicity could be detected at the highest analogue concentration, 1280 microM)"
same,minimum inhibitory concentration (MIC),[7],"> (no toxicity could be detected at the highest analogue concentration, 1280 microM)"
same,minimum inhibitory concentration (MIC),[8],"> (no toxicity could be detected at the highest analogue concentration, 1280 microM)"
same,minimum inhibitory concentration (MIC),[9],"> (no toxicity could be detected at the highest analogue concentration, 1280 microM)"
same,minimum inhibitory concentration (MIC),[10],1280 µM
same,minimum inhibitory concentration (MIC),[11],"> (no toxicity could be detected at the highest analogue concentration, 1280 microM)"
same,minimum inhibitory concentration (MIC),[12],"> (no toxicity could be detected at the highest analogue concentration, 1280 microM)"
Nc1nc2c(ncn2[C@@H]2C[C@H](O)[C@@H](CO)O2)c(=O)o1 [d-oxanosine],minimum inhibitory concentration (MIC),[1],"> (no toxicity could be detected at the highest analogue concentration, 1.28 mM)"
same,minimum inhibitory concentration (MIC),[2],"> (no toxicity could be detected at the highest analogue concentration, 1.28 mM)"
same,minimum inhibitory concentration (MIC),[13],80 µM
"O=c1[nH]cnc2c1ncn2[C@H]1C[C@H](O)[C@@H](CO)O1 [dI, 2′-deoxyinoside]",minimum inhibitory concentration (MIC),[1],"> (no toxicity could be detected at the highest analogue concentration, 1.28 mM)"
same,minimum inhibitory concentration (MIC),[2],320 µM
same,minimum inhibitory concentration (MIC),[13],1 µM and 1.25 µM
same,minimum inhibitory concentration (MIC),[3],"> (no toxicity could be detected at the highest analogue concentration, 1280 microM)"
same,minimum inhibitory concentration (MIC),[4],"> (no toxicity could be detected at the highest analogue concentration, 1280 microM)"
same,minimum inhibitory concentration (MIC),[5],≦1.25 microM
same,minimum inhibitory concentration (MIC),[6],"> (no toxicity could be detected at the highest analogue concentration, 1280 microM)"
same,minimum inhibitory concentration (MIC),[7],1280 µM
same,minimum inhibitory concentration (MIC),[8],"> (no toxicity could be detected at the highest analogue concentration, 1280 microM)"
same,minimum inhibitory concentration (MIC),[9],"> (no toxicity could be detected at the highest analogue concentration, 1280 microM)"
same,minimum inhibitory concentration (MIC),[10],≦1.25 microM
same,minimum inhibitory concentration (MIC),[11],"> (no toxicity could be detected at the highest analogue concentration, 1280 microM)"
same,minimum inhibitory concentration (MIC),[12],1280 µM
"NC(=O)c1cn([C@H]2C[C@H](O)[C@@H](CO)O2)cn1 [dY, 1-(2′-deoxyribofuranosyl)imidazole-4-carboxamide]",minimum inhibitory concentration (MIC),[1],"> (no toxicity could be detected at the highest analogue concentration, 1.28 mM)"
same,minimum inhibitory concentration (MIC),[2],"> (no toxicity could be detected at the highest analogue concentration, 1.28 mM)"
same,minimum inhibitory concentration (MIC),[3],"> (no toxicity could be detected at the highest analogue concentration, 1280 microM)"
same,minimum inhibitory concentration (MIC),[4],"> (no toxicity could be detected at the highest analogue concentration, 1280 microM)"
same,minimum inhibitory concentration (MIC),[5],"> (no toxicity could be detected at the highest analogue concentration, 1280 microM)"
same,minimum inhibitory concentration (MIC),[6],"> (no toxicity could be detected at the highest analogue concentration, 1280 microM)"
same,minimum inhibitory concentration (MIC),[7],"> (no toxicity could be detected at the highest analogue concentration, 1280 microM)"
same,minimum inhibitory concentration (MIC),[8],"> (no toxicity could be detected at the highest analogue concentration, 1280 microM)"
same,minimum inhibitory concentration (MIC),[9],"> (no toxicity could be detected at the highest analogue concentration, 1280 microM)"
same,minimum inhibitory concentration (MIC),[10],1280 µM
same,minimum inhibitory concentration (MIC),[11],"> (no toxicity could be detected at the highest analogue concentration, 1280 microM)"
same,minimum inhibitory concentration (MIC),[12],"> (no toxicity could be detected at the highest analogue concentration, 1280 microM)"
Nc1ccn([C@H]2CC[C@@H](CO)O2)c(=O)n1 [ddC],minimum inhibitory concentration (MIC),[1],"> (no toxicity could be detected at the highest analogue concentration, 1.28 mM)"
same,minimum inhibitory concentration (MIC),[2],"> (no toxicity could be detected at the highest analogue concentration, 1.28 mM)"
Cc1cn([C@H]2CC[C@@H](CO)O2)c(=O)[nH]c1=O [ddT],minimum inhibitory concentration (MIC),[1],"> (no toxicity could be detected at the highest analogue concentration, 1.28 mM)"
same,minimum inhibitory concentration (MIC),[2],"> (no toxicity could be detected at the highest analogue concentration, 1.28 mM)"
O=c1ccn([C@H]2CC[C@@H](CO)O2)c(=O)[nH]1 [ddU],minimum inhibitory concentration (MIC),[1],"> (no toxicity could be detected at the highest analogue concentration, 1.28 mM)"
same,minimum inhibitory concentration (MIC),[2],"> (no toxicity could be detected at the highest analogue concentration, 1.28 mM)"
